Data on two compounds can be found in paper PMC4172917, “Synergy of crude enzyme cocktail from cold-adapted Cladosporium cladosporioides Ch2-2 with commercial xylanase achieving high sugars yield at low cost” (Biotechnology for Biofuels, 2014).

One assay relates to laccase. As to conditions: optimal conditions (15°C, pH 3.5), but b56 states 28°C and 10 to 40 mmol/L substrate; sodium acetate buffer.
For assay [1], the system named is T1, MIP (manganese-independent peroxidase).
T1 construct: native enzyme purified from culture supernatant (ammonium sulfate, DEAE-Sephadex A 50, CM-Sephadex C 50, Sephadex G-75); about 47 kDa by SDS-PAGE
Description: initial rates, oxidation of DMP at […] nm. As to conditions: without H2O2 and Mn2+; optimal conditions (20°C, pH 2.5), but b56 states 28°C and 10 to 40 mmol/L substrate; malonate buffer; compound identity doubtful: DMP is spelt out as dimethyl phthalate. It is filed as biochemical, Cladosporium cladosporioides.

Structures are written as SMILES.

`CCn1c(=NN=c2sc3cc(S(=O)(=O)O)ccc3n2CC)sc2cc(S(=O)(=O)O)ccc21` [ABTS]: the Michaelis constant (Km) (usually the concentration of substrate that gives half-maximal velocity) in the assay on laccase was 2.8 µM.

With `COc1cccc(OC)c1O` [DMP], the Michaelis constant (Km) in assay [1] stood at 6.9 µM.
